Results as given in patent publication US20160264593A1 (priority 2013, published 2016).

Experiment: in vivo
Design: species or system SD rats
Conditions: rat, 1.4 mg/kg; for Kp: AUC(0-t) ratio of liver over plasma
Experimental: 113 was dissolved in 4% NaHCO3 in saline for IV administration. The detailed procedure of dosing solution preparation was presented in Appendix I.
15 animals were placed on the study. The animals in IV arm were free access to food and water. For PO dose group, the animals were fasted overnight prior to dosing and the food was resumed 4 hours postdose.
One extra animal was used for blank liver, brain and plasma generation (5 mL per animal). The resulting blank liver, brain and plasma were then applied to the development of bioanalytical method and sample bioanalysis for the entire study.
The IV injection was conducted via foot dorsal vein. PO via oral gavage.
Blood collection: The animal is restrained manually. Approximately 200 μL of blood/time point is collected into sodium heparin tube via cardiac puncture for terminal bleeding (anesthetized under carbon dioxide). Blood sample will be put on ice and centrifuged to obtain plasma sample (2000 g, 5 min under 4° C.) within 10 minutes.
Liver collection: The animal will be euthanized with carbon dioxide inhalation. Open abdominal cavity with scissor to expose internal organs. Hold the carcass in an upright position and allow the organs to fall forward. Cut the connective tissues and remove the organs. Then the organs are rinsed with cold saline, dried on filtrate paper, placed into a screw-top tube and weighed, snap frozen by placing into dry-ice immediately.
Brain collection: Make a mid-line incision in the animals scalp and retract the skin. Using small bone cutters and rongeurs, remove the skull overlying the brain. Remove the brain using a spatula and rinse with cold saline, dried on filtrate paper, placed into a screw-top tube and weighed, snap frozen by placing into dry-ice immediately. Brain tissue will be homogenized for 2 min with 3 volumes (v/w) of homogenizing solution (PBS pH 7.4) right before analysis. Plasma, brain and liver samples were stored at approximately −80° C. until analysis. The backup samples will be discarded after three weeks after in-life completion unless requested. The unused dosing solutions will be discarded within three weeks after completion of the study.
The PK parameters were determined by non-compartmental model of non-compartmental analysis tool, Pharsight Phoenix WinNonlin® 6.2 software.
Concentration data within 80%-120% of LLOQ was considered within normal instrumental variation and presented in the results.
Time points were automatic selected by “best fit” model for terminal half life estimation as the first option. Manual selection was applied when “best fit” could not well define the terminal phase.

[1] = male, Sprague-Dawley (SD), iv, 6 hr
[2] = male, SD, iv, Liver-plasma concentration ratio of 113
[3] = male, SD, iv, liver concentration of 113
[4] = male, SD, iv, plasma concentration of 113
[5] = male, SD, po, plasma concentration of 113
[6] = male, Sprague-Dawley, iv, Brain-plasma concentration ratio of 113
[7] = male, Sprague-Dawley, iv, brain concentration of 113

Structure (SMILES): CN1CCN(C(=O)C2C3CCC(O3)C2C(=O)O)CC1 (stereo not drawn) [Compound 100, 3-(4-methylpiperazine-1-carbonyl)-7-oxa-bicyclo[2,2,1]-heptane-2-carboxylic acid]
- AUC(0-inf) (male, Sprague-Dawley (SD), iv): 2830 ng·h/mL
- AUC(0-t) (male, Sprague-Dawley (SD), iv): 2800 ng·h/mL
- AUC(0-t) of 100 (male, Sprague-Dawley (SD), iv): 703 ng·h/mL
- AUC(0-∞) of 100 (male, Sprague-Dawley (SD), iv): 707 ng·h/mL
- Tmax (male, Sprague-Dawley (SD), iv): 15 min
- Tmax of 100 (male, Sprague-Dawley (SD), iv): 15 min
- Liver-plasma concentration ratio of 100 [1]: 7.32
- plasma concentration of 100 [1]: 3.25 ng/mL
- AUC(0-last) of 100 in plasma (male, Sprague-Dawley, iv): 703 ng·h/mL
- AUC(0-t) ratio of liver over plasma, 100 (male, Sprague-Dawley, iv): 399
- AUC(0-∞) of 100 in plasma (male, Sprague-Dawley, iv): 707 ng·h/mL
- Cmax of 100 in liver (male, Sprague-Dawley, iv): 1895 ng/g
- Cmax of 100 in plasma (male, Sprague-Dawley, iv): 554 ng/mL
- Tmax of 100 in liver (male, Sprague-Dawley, iv): 15 min
- Tmax of 100 in plasma (male, Sprague-Dawley, iv): 15 min
- plasma concentration of 100 (male, Sprague-Dawley, iv, 6 h): 3.25 ng/mL
- AUC(0-last) of 100 in liver (iv): 2804 ng·h/g
- AUC(0-∞) of 100 in liver (iv): 2834 ng·h/g
- AUClast-liver/AUClast-plasma of 100 (iv): 399

Structure (SMILES): CN1CCN(C(=O)C2C(C(=O)OCC(Cl)(Cl)Cl)[C@H]3CC[C@@H]2O3)CC1 (stereo partly drawn) [Compound 113]
- Liver-plasma concentration ratio of 113 (male, SD, iv, 1 h): 1.18
- AUC(0-t) (male, SD, iv, AUClast of 113 in plasma): 155 ng·h/mL
- Kp at 0.25 h [2]: 0.321
- Kp at 1 h [2]: 1.35
- concentration at 0.25 h [3]: 55.5 ng/g
- concentration at 1 h [3]: 14.6 ng/g
- concentration at 0.25 h [4]: 173 ng/mL
- concentration at 1 h [4]: 10.8 ng/mL
- plasma concentration of 113 (male, SD, po, 2 h): 2.15 ng/mL
- concentration at 0.25 h [5]: 18.3 ng/mL
- concentration at 1 h [5]: 4.61 ng/mL
- concentration at 2 h [5]: 2.15 ng/mL
- Cmax of 113 (male, Sprague-Dawley (SD), iv): 90.4 ng/mL
- Tmax (male, Sprague-Dawley (SD), iv): 15 min
- Cmax (male, Sprague-Dawley (SD), iv, Cmax of 113): 46.2 ng/mL
- F of 113 (male, Sprague-Dawley (SD), po): 10.1%
- Tmax (male, Sprague-Dawley (SD), po): 15 min
- AUC(0-t) (male, Sprague-Dawley (SD), po, AUC(0-t) of 113): 15.7 ng·h/mL
- Cmax (male, Sprague-Dawley (SD), po, Cmax of 113): 17.7 ng/mL
- bioavailability (male, Sprague-Dawley): 10.1%
- Tmax (male, Sprague-Dawley, iv): 15 min
- Kp (male, Sprague-Dawley, iv, 113): 18.1
- Kp (male, Sprague-Dawley, iv, 113 (printed in the brain paragraph)): 30.6
- Kp at 0.25 h [6]: 0.498
- Kp at 1 h [6]: 0.537
- Cmax (male, Sprague-Dawley, iv, Cmax of 113 in brain): 90.4 ng/g
- Cmax (male, Sprague-Dawley, iv, Cmax of 113 in liver): 46.2 ng/g
- Kp at 1 h (male, Sprague-Dawley, iv, Liver-plasma concentration ratio of 113): 1.27
- concentration at 0.25 h [7]: 86.2 ng/g
- concentration at 1 h [7]: 5.8 ng/g
- Tmax (male, Sprague-Dawley, po): 15 min
- AUC(0-t) (male, Sprague-Dawley, po, AUClast of 113 in plasma): 15.7 ng·h/mL
- Cmax (male, Sprague-Dawley, po, Cmax of 113 in plasma): 17.7 ng/mL
- AUC(0-last) of 113 in brain (iv): 47.5 ng·h/g
- AUC(0-last) of 113 in liver (iv): 28.1 ng·h/g
